Results: patent US9290451B2 (Hoffmann-La Roche Inc., priority 2011, dated 2016)
Read-outs that look alike come from different tables or passages of the source.

Tests used:
human CB1 receptors = human CB1 receptors (Homo sapiens (Human), UniProt P21554); experiment: cAMP assay, CHO cells expressing human CB1 receptors; assay type: cell-based
Method in brief: (§1)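 Read-out is TR-FRET (excitation 355 nm, emission 730/645 nm) after cell lysis, with cAMP content taken from a standard curve and EC50 calculated. Cells were pretreated with 1 mM IBMX in Krebs Ringer bicarbonate buffer, then incubated with compounds for 30 min at 30 °C.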

human CB2 receptors = human CB2 receptors (Homo sapiens (Human), UniProt P34972); experiment: cAMP assay, CHO cells expressing human CB2 receptors; assay type: cell-based
Method in brief: as §1

[1] = CHO cells expressing human CB1, cAMP, read-out: human CB1 EC50
[2] = CHO cells expressing human CB2, cAMP, read-out: human CB2 EC50

human CB2 receptors, sequence (P34972 whole entry): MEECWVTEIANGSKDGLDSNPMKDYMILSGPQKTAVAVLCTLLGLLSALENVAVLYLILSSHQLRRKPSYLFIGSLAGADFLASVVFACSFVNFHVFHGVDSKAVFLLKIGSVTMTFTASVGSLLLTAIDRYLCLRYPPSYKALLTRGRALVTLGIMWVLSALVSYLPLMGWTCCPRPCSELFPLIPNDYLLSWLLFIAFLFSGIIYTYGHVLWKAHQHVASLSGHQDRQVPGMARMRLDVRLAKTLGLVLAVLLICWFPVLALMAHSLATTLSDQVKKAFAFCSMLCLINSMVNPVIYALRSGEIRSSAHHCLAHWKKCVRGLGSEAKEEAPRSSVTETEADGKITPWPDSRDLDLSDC
human CB1 receptors, sequence (P21554 whole entry): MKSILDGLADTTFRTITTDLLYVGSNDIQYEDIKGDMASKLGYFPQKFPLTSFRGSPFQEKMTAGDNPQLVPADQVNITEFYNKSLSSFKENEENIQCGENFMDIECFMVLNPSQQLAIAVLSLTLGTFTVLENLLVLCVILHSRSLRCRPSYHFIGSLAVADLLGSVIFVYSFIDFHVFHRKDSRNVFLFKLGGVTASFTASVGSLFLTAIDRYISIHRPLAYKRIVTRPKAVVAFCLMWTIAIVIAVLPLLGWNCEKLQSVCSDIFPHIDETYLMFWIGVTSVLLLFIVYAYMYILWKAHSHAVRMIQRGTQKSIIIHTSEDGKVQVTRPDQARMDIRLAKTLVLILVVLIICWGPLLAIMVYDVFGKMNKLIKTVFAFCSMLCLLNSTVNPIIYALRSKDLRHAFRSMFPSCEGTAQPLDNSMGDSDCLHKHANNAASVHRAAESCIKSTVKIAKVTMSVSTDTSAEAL

Structure (SMILES)	EC50 (human CB1 receptors; [1]) [nM]	EC50 (human CB2 receptors; [2]) [nM]	EC50 (human CB1 receptors) [nM]	EC50 (human CB2 receptors) [nM]
CCC(CC)(NC(=O)c1ccc(Cl)c(OCC2CC2)n1)C(=O)NC [Example 109, 5-Chloro-6-cyclopropylmethoxy-pyridine-2-carboxylic acid (1-ethyl-1-methylcarbamoyl-propyl)-amide]	> 10000	178		
NC(=O)[C@H](CC1CC1)NC(=O)c1ccc(Br)c(OCC2CC2)n1 [Example 110, 5-Bromo-6-cyclopropylmethoxy-pyridine-2-carboxylic acid ((S)-1-carbamoyl-2-cyclopropyl-ethyl)-amide]	> 10000	224		
CCC(CC)(NC(=O)c1ccc(C2CCCC2)c(OCC2CC2)n1)C(=O)NC [Example 111, 5-Cyclopentyl-6-cyclopropylmethoxy-pyridine-2-carboxylic acid (1-ethyl-1-methylcarbamoyl-propyl)-amide]	> 10000	6.9		
NC(=O)[C@H](CC1CC1)NC(=O)c1ccc(N2CCC(F)(F)C2)c(OCC2CC2)n1 [Example 112, 6-Cyclopropylmethoxy-5-(3,3-difluoro-pyrrolidin-1-yl)-pyridine-2-carboxylic acid ((S)-1-carbamoyl-2-cyclopropyl-ethyl)-amide]	> 10000	15.4		
NC(=O)[C@H](CC1CC1)NC(=O)c1ccc(C(F)(F)F)c(OCC2CC2)n1 [Example 113, 6-Cyclopropylmethoxy-5-trifluoromethyl-pyridine-2-carboxylic acid ((S)-1-carbamoyl-2-cyclopropyl-ethyl)-amide]	> 10000	200		
CC(C)C[C@H](NC(=O)c1ccc(C2CCOC2)c(OCC2CC2)n1)C(N)=O (stereo partly drawn) [Example 114, 6-Cyclopropylmethoxy-5-(tetrahydro-furan-3-yl)-pyridine-2-carboxylic acid ((S)-1-carbamoyl-3-methyl-butyl)-amide]	703	5.7		
CC(C)C[C@H](NC(=O)c1ccc(C2CCCO2)c(OCC2CC2)n1)C(N)=O (stereo partly drawn) [Example 115, 6-Cyclopropylmethoxy-5-(tetrahydro-furan-2-yl)-pyridine-2-carboxylic acid ((S)-1-carbamoyl-3-methyl-butyl)-amide]	953	6.6		
CC(C)(NC(=O)c1ccc(C2CC2)c(-c2cccc(Cl)c2)n1)c1nccs1 [Example 116, 6-(3-Chloro-phenyl)-5-cyclopropyl-pyridine-2-carboxylic acid (1-methyl-1-thiazol-2-yl-ethyl)-amide]			1450	85.9
COCCOCC(C)(C)NC(=O)c1ccc(C2CC2)c(OCC2CC2)n1 [Example 117, 5-Cyclopropyl-6-cyclopropylmethoxy-pyridine-2-carboxylic acid [2-(2-methoxy-ethoxy)-1,1-dimethyl-ethyl]-amide]	> 10000	350		
CC(C)C[C@H](NC(=O)c1ccc(C(F)(F)F)c(OCC2CC2)n1)C(N)=O [Example 118, 6-Cyclopropylmethoxy-5-trifluoromethyl-pyridine-2-carboxylic acid ((S)-1-carbamoyl-3-methyl-butyl)-amide]	1550	13.4		
CC(C)(NC(=O)c1ccc(C(F)(F)F)c(OCC2CC2)n1)c1ncon1 [Example 119, 6-Cyclopropylmethoxy-5-trifluoromethyl-pyridine-2-carboxylic acid (1-methyl-1-[1,2,4]oxadiazol-3-yl-ethyl)-amide]	> 10000	227		
Cc1nc(C(C)(C)NC(=O)c2ccc(C(F)(F)F)c(OCC3CC3)n2)no1 [Example 120, 6-Cyclopropylmethoxy-5-trifluoromethyl-pyridine-2-carboxylic acid [1-methyl-1-(5-methyl-[1,2,4]oxadiazol-3-yl)-ethyl]-amide]	> 10000	259		
CC(C)(NC(=O)c1ccc(C(F)(F)F)c(OCC2CC2)n1)c1nccs1 [Example 121, 6-Cyclopropylmethoxy-5-trifluoromethyl-pyridine-2-carboxylic acid (1-methyl-1-thiazol-2-yl-ethyl)-amide]	1350	111		
O=C(NC1CCCCC1CO)c1cccc(C2CCCCC2)n1 (centres unmarked) [Example 122, 6-Cyclohexyl-pyridine-2-carboxylic acid (2-hydroxymethyl-cyclohexyl)-amide]	> 10000	158		
Cc1nc(C(C)(C)NC(=O)c2ccc(C3CCCO3)c(OCC3CC3)n2)no1 (centres unmarked) [Example 123, 6-Cyclopropylmethoxy-5-(tetrahydro-furan-2-yl)-pyridine-2-carboxylic acid [1-methyl-1-(5-methyl-[1,2,4]oxadiazol-3-yl)-ethyl]-amide]	> 10000	20		
Cc1nc(C(C)(C)NC(=O)c2ccc(C3CCOC3)c(OCC3CC3)n2)no1 (centres unmarked) [Example 124, 6-Cyclopropylmethoxy-5-(tetrahydro-furan-3-yl)-pyridine-2-carboxylic acid [1-methyl-1-(5-methyl-[1,2,4]oxadiazol-3-yl)-ethyl]-amide]	> 10000	79.2		

Structure (SMILES)	EC50 (human CB1 receptors; [1]) [nM]	EC50 (human CB2 receptors; [2]) [nM]	EC50 (human CB1 receptors) [nM]	EC50 (human CB2 receptors) [nM]
Cc1nc(C(C)(C)NC(=O)c2ccc(C3CCCO3)c(-c3cccc(Cl)c3)n2)no1 (centres unmarked) [Example 125, 6-(3-Chloro-phenyl)-5-(tetrahydro-furan-2-yl)-pyridine-2-carboxylic acid [1-methyl-1-(5-methyl-[1,2,4]oxadiazol-3-yl)-ethyl]-amide]	> 10000	209		
CC(C)(NC(=O)c1ccc(C2CCCO2)c(-c2cccc(Cl)c2)n1)c1ncco1 (centres unmarked) [Example 126, 6-(3-Chloro-phenyl)-5-(tetrahydro-furan-2-yl)-pyridine-2-carboxylic acid (1-methyl-1-oxazol-2-yl-ethyl)-amide]	> 10000	240		
CC(C)(NC(=O)c1ccc(C2CCCO2)c(-c2cccc(Cl)c2)n1)c1nccs1 (centres unmarked) [Example 127, 6-(3-Chloro-phenyl)-5-(tetrahydro-furan-2-yl)-pyridine-2-carboxylic acid (1-methyl-1-thiazol-2-yl-ethyl)-amide]	> 10000	224		
CC(C)(NC(=O)c1ccc(C2CCCC2)c(-c2cccc(Cl)c2)n1)c1nccs1 [Example 128, 6-(3-Chloro-phenyl)-5-cyclopentyl-pyridine-2-carboxylic acid (1-methyl-1-thiazol-2-yl-ethyl)-amide]	> 10000	240		
CC(C)(NC(=O)c1ccc(C(F)(F)F)c(OCC2CC2)n1)c1ncco1 [Example 129, 6-Cyclopropylmethoxy-5-trifluoromethyl-pyridine-2-carboxylic acid (1-methyl-1-oxazol-2-yl-ethyl)-amide]	> 10000	184		
Cc1ccc(C(=O)N[C@@H](CC2CC2)C(N)=O)nc1OCC1CC1 [Example 130, 6-Cyclopropylmethoxy-5-methyl-pyridine-2-carboxylic acid ((S)-1-carbamoyl-2-cyclopropyl-ethyl)-amide]	> 10000	50		
CC(C)C[C@H](NC(=O)c1ccc(N2CC(O)C2)c(OCC2CC2)n1)C(N)=O [Example 131, 6-Cyclopropylmethoxy-5-(3-hydroxy-azetidin-1-yl)-pyridine-2-carboxylic acid ((S)-1-carbamoyl-3-methyl-butyl)-amide]	> 10000	78.4		
CC(C)C[C@H](NC(=O)c1ccc(N2CC(F)(F)C2)c(OCC2CC2)n1)C(N)=O [Example 132, 6-Cyclopropylmethoxy-5-(3,3-difluoro-azetidin-1-yl)-pyridine-2-carboxylic acid ((S)-1-carbamoyl-3-methyl-butyl)-amide]	1130	0.8		
NC(=O)[C@H](CC1CC1)NC(=O)c1ccc(NC2CC2)c(OCC2CC2)n1 [Example 133, 5-Cyclopropylamino-6-cyclopropylmethoxy-pyridine-2-carboxylic acid ((S)-1-carbamoyl-2-cyclopropyl-ethyl)-amide]	> 10000	37.7		
CC(C)C[C@H](NC(=O)c1ccc(NC2CC2)c(OCC2CC2)n1)C(N)=O [Example 134, 5-Cyclopropylamino-6-cyclopropylmethoxy-pyridine-2-carboxylic acid ((S)-1-carbamoyl-3-methyl-butyl)-amide]	151	5.1		
CC(C)(O)[C@H](CC1CC1)NC(=O)c1ccc(N2CC(F)(F)C2)c(OCC2CC2)n1 [Example 135, 6-Cyclopropylmethoxy-5-(3,3-difluoro-azetidin-1-yl)-pyridine-2-carboxylic acid ((S)-1-cyclopropylmethyl-2-hydroxy-2-methyl-propyl)-amide]	> 10000	38.2		
NC(=O)[C@H](CC1CC1)NC(=O)c1ccc(C2CCOC2)c(OCC2CC2)n1 (stereo partly drawn) [Example 136, 6-Cyclopropylmethoxy-5-(tetrahydro-furan-3-yl)-pyridine-2-carboxylic acid ((S)-1-carbamoyl-2-cyclopropyl-ethyl)-amide]	> 10000	65.4		
O=C(NC1CCCCC1O)c1ccc(N2CC(F)(F)C2)c(OCC2CC2)n1 (centres unmarked) [Example 137, 6-Cyclopropylmethoxy-5-(3,3-difluoro-azetidin-1-yl)-pyridine-2-carboxylic acid (2-hydroxy-cyclohexyl)-amide]	> 10000	211		
Cc1nc([C@H](CC2CC2)NC(=O)c2ccc(N3CC(F)(F)C3)c(OCC3CC3)n2)no1 [Example 138, 6-Cyclopropylmethoxy-5-(3,3-difluoro-azetidin-1-yl)-pyridine-2-carboxylic acid [(S)-2-cyclopropyl-1-(5-methyl-[1,2,4]oxadiazol-3-yl)-ethyl]-amide]	> 10000	26.7		
CC(C)(O)[C@H](CC1CC1)NC(=O)c1ccc(C2CC2)c(OCC2CC2)n1 [Example 139, 5-Cyclopropyl-6-cyclopropylmethoxy-pyridine-2-carboxylic acid ((S)-1-cyclopropylmethyl-2-hydroxy-2-methyl-propyl)-amide]	> 10000	113		
